Source: US20060100431A1, “Biologically active compounds” (Amura Therapeutics Limited, priority 2002, published 2006)

What follows are molecules tested against Wild-type cruzipain (Trypanosoma cruzi, UniProt P25779) (assay: Trypanosoma cruzi cruzipain peptidase activity assay (Ki)). Conditions: read-out: Ki, inhibitors of cruzain and cruzipains.
Type: biochemical
Experimental: (§1) Unless otherwise stated, all general chemicals and biochemicals were purchased from either the Sigma Chemical Company, Poole, Dorset, U.K or from Fisher Scientific UK, Loughborough, Leicestershire, U.K. Absorbance assays were carried out in flat-bottomed 96-well plates (Spectra; Greiner Bio-One Ltd., Stonehouse, Gloucestershire, U.K.) using a SpectraMax PLUS384 plate reader (Molecular Devices, Crawley, U.K.). Fluorescence high throughput assays were carried out in either 384-well microtitre plates (Corning Costar 3705 plates, Fisher Scientific) or 96-well ‘U’ bottomed Microfluor W1 microtitre plates (Thermo Labsystems, Ashford, Middlesex, U.K.). Fluorescence assays were monitored using a SpectraMax Gemini fluorescence plate reader (Molecular Devices). For substrates employing either a 7-amino-4-methylcoumarin (AMC) or a 7-amino-4-trifluoromethylcoumarin (AFC) fluorophore, assays were monitored at an excitation wavelength of 365 nm and an emission wavelength of 450 nm and the fluorescence plate reader calibrated with AMC. For substrates employing a 3-amino-benzoyl (Abz) fluorophore, assays were monitored at an excitation wavelength of 310 nm and an emission wavelength of 445 nm; the fluorescence plate reader calibrated with 3-amino-benzamide (Fluka). Unless otherwise indicated, all the peptidase substrates were purchased from Bachem UK, St Helens, Merseyside, UK. Substrates utilizing fluorescence resonance energy transfer methodology (i.e. FRET-based substrates) were synthesized at Incenta Limited using published methods (Atherton & Sheppard, Solid Phase Peptide Synthesis, IRL Press, Oxford, U.K, 1989) and employed Abz (2-aminobenzoyl) as the fluorescence donor and 3-nitro-tyrosine [Tyr(NO2)] as the fluorescence quencher (Meldal, M. and Breddam, K., Anal. Biochem, 195, 141-147, 1991). Hydroxyethylpiperazine ethanesulfonate (HEPES), tris-hydroxylmethyl aminomethane (tris) base, bis-tris-propane and all the biological detergents (e.g. CHAPS, zwittergents, etc.) were purchased from CN Biosciences UK, Beeston, Nottinghamshire, U.K. Glycerol was purchased from Amersham Pharmacia Biotech, Little Chalfont, Buckinghamshire, U.K. Stock solutions of substrate or inhibitor were made up to 10 mM in 100% dimethylsulfoxide (DMSO) (Rathburns, Glasgow, U.K.) and diluted as appropriately required. In all cases the DMSO concentration in the assays was maintained at less than 1% (vol./vol.).
(§2) Assay protocols were based on literature precedent (Table 4; Barrett, A. J., Rawlings, N. D. and Woessner, J. F., 1998, Handbook of Proteolytic Enzymes, Academic Press, London and references therein) and modified as required to suit local assay protocols. Enzyme was added as required to initiate the reaction and the activity, as judged by the change in fluorescence upon conversion of substrate to product, was monitored over time. All assays were carried out at 25±1° C.
Wild-type cruzipain, derived from Trypanosoma cruzi Dm28 epimastigotes, was obtained from Dr. Julio Scharfstein (Instituto de Biofisica Carlos Chagas Filho, Universidade Federal do Rio de Janeiro, Rio de Janeiro, Brazil). Activity assays were carried out in 100 mM sodium phosphate, pH 6.75 containing 1 mM EDTA and 10 mM L-cysteine using 2.5 nM enzyme. […] The rate of conversion of substrate to product was derived from the slope of the increase in fluorescence monitored continuously over time.
(§3) The apparent inhibition constant (Ki) for each compound was determined on the basis that inhibition was reversible and occurred by a pure-competitive mechanism. The Ki values were calculated, from the dependence of enzyme activity as a function of inhibitor concentration, by direct regression analysis (Prism v 3.02) using Equation 2 (Cornish-Bowden, A., 1995.). [formula]

Chain of Wild-type cruzipain (P25779 whole entry): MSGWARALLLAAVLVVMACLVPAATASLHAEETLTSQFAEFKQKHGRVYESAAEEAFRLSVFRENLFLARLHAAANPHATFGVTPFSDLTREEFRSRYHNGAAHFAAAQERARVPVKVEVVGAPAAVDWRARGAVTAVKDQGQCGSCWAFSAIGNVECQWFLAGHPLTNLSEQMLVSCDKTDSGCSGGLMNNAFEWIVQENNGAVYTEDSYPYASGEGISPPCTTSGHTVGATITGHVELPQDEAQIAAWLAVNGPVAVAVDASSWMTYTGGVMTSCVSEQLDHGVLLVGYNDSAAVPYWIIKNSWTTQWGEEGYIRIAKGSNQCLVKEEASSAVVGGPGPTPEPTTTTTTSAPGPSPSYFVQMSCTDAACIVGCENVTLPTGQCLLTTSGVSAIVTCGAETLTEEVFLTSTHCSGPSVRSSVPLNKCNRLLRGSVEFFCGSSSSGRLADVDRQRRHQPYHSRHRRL

SMILES | Ki [µM]
O=C(N[C@@H](Cc1ccc(O)cc1)C(=O)N1CC[C@@H]2[C@H]1C(=O)CN2C(=O)c1ccccc1)c1cccc2cccnc12 [Example 297, (3aR,6aS)-Quinoline-8-carboxylic acid [(1S)-2-(4-benzoyl-6-oxo-hexahydro-pyrrolo[3,2-b]pyrrole-1-yl)-1-(4-hydroxy-benzyl)-2-oxo-ethyl]-amide] | < 5
O=C(N[C@@H](Cc1ccc(O)cc1)C(=O)N1CC[C@@H]2[C@H]1C(=O)CN2C(=O)c1ccc2ccccc2c1)c1cccc2ccccc12 [Example 302, (3aR,6aS)-Naphthalene-1-carboxylic acid {(1S)-1-(4-hydroxy-benzyl)-2-[4-(naphthalene-2-carbonyl)-6-oxo-hexahydro-pyrrolo[3,2-b]pyrrol-1-yl]-2-oxo-ethyl}-amide] | < 5
CCn1nc(C)cc1C(=O)N[C@@H](Cc1ccc(O)cc1)C(=O)N1CC[C@@H]2[C@H]1C(=O)CN2C(=O)c1ccccc1S(C)(=O)=O [Example 313, (3aR,6aS)-2-Ethyl-5-methyl-2H-pyrazole-3-carboxylic acid {(1S)-1-(4-hydroxy-benzyl)-2-[4-(2-methanesulfonylbenzoyl)-6-oxo-hexahydropyrrolo[3,2-b]pyrrole-1-yl]-2-oxo-ethyl}-amide] | < 5
CN(C)c1ccc(C(=O)N[C@@H](Cc2ccc(O)cc2)C(=O)N2CC[C@@H]3[C@H]2C(=O)CN3C(=O)c2cccc([N+](=O)[O-])c2)cc1 [Example 321, (3aR,6aS)-4-Dimethylamino-N-{(1S)-1-(4-hydroxy-benzyl)-2-[4-(3-nitro-benzoyl)-6-oxo-hexahydro-pyrrolo[3,2-b]pyrrole-1-yl]-2-oxo-ethyl}-benzamide] | < 5
CN(C)c1ccc(C(=O)N[C@@H](Cc2ccc(O)cc2)C(=O)N2CC[C@@H]3[C@H]2C(=O)CN3C(=O)c2cccc(F)c2)cc1 [Example 322] | < 5
O=C(N[C@@H](Cc1ccc(O)cc1)C(=O)N1CC[C@@H]2[C@H]1C(=O)CN2C(=O)c1cccs1)c1cccc(Br)c1 [Example 324, (3aR,6aS)-3-Bromo-N-{(1S)-1-(4-hydroxy-benzyl)-2-oxo-2-[6-oxo-4-(thiophene-2-carbonyl)-hexahydro-pyrrolo[3,2-b]pyrrol-1-yl]-ethyl}-benzamide] | < 5
Cc1ccc(C(=O)N2CC(=O)[C@@H]3[C@H]2CCN3C(=O)[C@H](Cc2ccc(O)cc2)NC(=O)c2cccc(Br)c2)cc1 [Example 328, (3aR,6aS)-3-Bromo-N-{(1S)-1-(4-hydroxy-benzyl)-2-[4-(4-methyl-benzoyl)-6-oxo-hexahydro-pyrrolo[3,2-b]pyrrole-1-yl]-2-oxo-ethyl}-benzamide] | < 5
O=C(N[C@@H](Cc1ccc(O)cc1)C(=O)N1CC[C@@H]2[C@H]1C(=O)CN2C(=O)c1ccccc1)c1ccccc1 [Example 333, (3aR,6aS)-N-[(1S)-2-(4-Benzoyl-6-oxo-hexahydro-pyrrolo[3,2-b]pyrrol-1-yl)-1-(4-hydroxy-benzyl)-2-oxo-ethyl]-benzamide] | < 5
O=C(N[C@@H](Cc1ccc(O)cc1)C(=O)N1CC[C@@H]2[C@H]1C(=O)CN2C(=O)c1ccccc1)c1cccnc1 [Example 336, (3aR,6aS)-N-[(1S)-2-(4-Benzoyl-6-oxo-hexahydro-pyrrolo[3,2-b]pyrrol-1-yl)-1-(4-hydroxy-benzyl)-2-oxo-ethyl]-nicotinamide] | < 5
Cc1ccc(C(=O)N[C@@H](Cc2ccc(O)cc2)C(=O)N2CC[C@@H]3[C@H]2C(=O)CN3C(=O)c2ccccc2)cc1Br [Example 337, (3aR,6aS)-N-[(1S)-2-(4-Benzoyl-6-oxo-hexahydro-pyrrolo[3,2-b]pyrrol-1-yl)-1-(4-hydroxy-benzyl)-2-oxo-ethyl)-3-bromo-4-methyl-benzamide] | < 5
COc1cccc(C(=O)N[C@@H](Cc2ccc(O)cc2)C(=O)N2CC[C@@H]3[C@H]2C(=O)CN3C(=O)c2ccccc2)c1 [Example 338, (3aR,6aS)-N-[(1S)-2-(4-Benzoyl-6-oxo-hexahydro-pyrrolo[3,2-b]pyrrol-1-yl)-1-(4-hydroxy-benzyl)-2-oxo-ethyl]-3-methoxy-benzamide] | < 5
O=C(N[C@@H](Cc1ccc(O)cc1)C(=O)N1CC[C@@H]2[C@H]1C(=O)CN2C(=O)c1ccccc1)c1cccc(OC(F)(F)F)c1 [Example 339, (3aR,6aS)-N-[(1S)-2-(4-Benzoyl-6-oxo-hexahydro-pyrrolo[3,2-b]pyrrol-1-yl)-1-(4-hydroxy-benzyl)-2-oxo-ethyl]-3-trifluoromethoxy-benzamide] | < 5
O=C(N[C@@H](Cc1cccc(F)c1)C(=O)N1CC[C@@H]2[C@H]1C(=O)CN2C(=O)c1ccccc1)c1cccc(Br)c1 [Example 342, (3aR,6aS)-N-[(1S)-2-(4-Benzoyl-6-oxo-hexahydro-pyrrolo[3,2-b]pyrrol-1-yl)-1-(3-fluoro-benzyl)-2-oxo-ethyl]-3-bromo-benzamide] | < 5
O=C(N[C@@H](Cc1cc(F)cc(F)c1)C(=O)N1CC[C@@H]2[C@H]1C(=O)CN2C(=O)c1ccccc1)c1cccc(Br)c1 [Example 343, (3aR,6aS)-N-[(1S)-2-(4-Benzoyl-6-oxo-hexahydro-pyrrolo[3,2-b]pyrrol-1-yl)-1-(3,5-difluoro-benzyl)-2-oxo-ethyl]-3-bromo-benzamide] | < 5
O=C(N[C@@H](Cc1ccc(F)cc1)C(=O)N1CC[C@@H]2[C@H]1C(=O)CN2C(=O)c1ccccc1)c1cccc(Br)c1 [Example 344, (3aR,6aS)-N-[(1S)-2-(4-Benzoyl-6-oxo-hexahydro-pyrrolo[3,2-b]pyrrol-1-yl)-1-(4-fluoro-benzyl)-2-oxo-ethyl]-3-bromo-benzamide] | < 5

The molecules below were run against T1, CPB2.8ΔCTE (Leishmania mexicana, UniProt P36400) (assay: Leishmania mexicana cysteine protease B (CPB) peptidase activity assay (Ki)). Conditions: Ki, inhibitors of Leismania mexicana CPB protease.
T1 construct: Wild-type recombinant CPB without the C-terminal extention (i.e. CPB2.8ΔCTE); Dr. Jeremy Mottram (Wellcome Centre for Molecular Parasitology, University of Glasgow)
T1 sequence (P36400 126-343, stated change not applied): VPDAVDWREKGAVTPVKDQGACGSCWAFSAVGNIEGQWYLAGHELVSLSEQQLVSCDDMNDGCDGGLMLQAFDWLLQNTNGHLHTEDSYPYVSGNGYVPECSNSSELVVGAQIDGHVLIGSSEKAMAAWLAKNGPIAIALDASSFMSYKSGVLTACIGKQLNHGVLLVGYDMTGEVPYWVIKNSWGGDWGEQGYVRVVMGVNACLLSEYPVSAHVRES
Type: biochemical
Experimental: as §1, §2
Wild-type recombinant CPB without the C-terminal extention (i.e. CPB2.8ΔCTE; Sanderson, S. J., et. al., Biochem. J., 347, 383-388, 2000) was obtained from Dr. Jeremy Mottram (Wellcome Centre for Molecular Parasitology, The Anderson College, University of Glasgow, Glasgow, U.K.). Activity assays were carried out in 100 mM sodium acetate; pH 5.5 containing 1 mM EDTA; 200 mM NaCl and 10 mM DTT (Alves, L. C., et. al., Mol. Biochem. Parasitol, 116, 1-9, 2001) using 0.25 nM enzyme. […] The rate of conversion of substrate to product was derived from the slope of the increase in fluorescence monitored continuously over time.
as §3

SMILES | Ki [µM]
CC(C)C[C@H](NC(=O)c1ccc(C(C)(C)C)cc1)C(=O)N1CC[C@@H]2[C@H]1C(=O)CN2C(=O)Cc1ccccc1 [Example 3, (3aR,6aS)-4-tert-Butyl-N-[(1S)-3-methyl-1-(6-oxo-4-phenylacetyl-hexahydro-pyrrolo[3,2-b]pyrrole-1-carbonyl)-butyl]-benzamide] | < 5
CC(C)C[C@H](NC(=O)c1ccc(N(C)C)cc1)C(=O)N1CC[C@@H]2[C@H]1C(=O)CN2C(=O)c1ccc(C(C)(C)C)cc1 [Example 75, (3aR,6aS)-N-{(1S)-1-[4-(4-tert-Butyl-benzoyl)-6-oxo-hexahydro-pyrrolo[3,2-b]pyrrole-1-carbonyl]-3-methyl-butyl}-4-dimethylamino-benzamide] | < 5
COC(=O)c1ccc(C(=O)N2CC(=O)[C@@H]3[C@H]2CCN3C(=O)[C@H](CC(C)C)NC(=O)c2ccc(N(C)C)cc2)cc1 [Example 76, (3aS,6aR)-4-{4-[(2S)-2-(4-Dimethylamino-benzoylamino)-4-methyl-pentanoyl]-3-oxo-hexahydro-pyrrolo[3,2-b]pyrrole-1-carbonyl}-benzoic acid methyl ester] | < 5
COc1cc(OC)cc(C(=O)N2CC(=O)[C@@H]3[C@H]2CCN3C(=O)[C@H](CC(C)C)NC(=O)c2ccc(N(C)C)cc2)c1 [Example 112, (3aR,6aS)-N-{(1S)-1-[4-(3,5-Dimethoxy-benzoyl)-6-oxo-hexahydropyrrolo[3,2-b]pyrrole-1-carbonyl]-3-methyl-butyl}-4-dimethylamino-benzamide] | < 5
